Assay results from publication PMC10141620 (Viruses, 2023).
≈ marks a conversion by molar mass, not a printed value. Like-named read-outs stand apart in the source and are kept apart here.

Assays:
[1] = test system: NL4-3ΔEnv-NanoLuc/SARS-CoV-2 (USA-WA1/2020) pseudovirus; test: organism not typed; type: cell-based
[2] = test system: NL4-3ΔEnv-NanoLuc/SARS-CoV-1 pseudovirus; test: microbe, parasite or virus in culture; type: cell-based; details: Severe acute respiratory syndrome coronavirus
[3] = test system: NL4-3ΔEnv-NanoLuc/MERS-CoV pseudovirus; test: microbe, parasite or virus in culture; type: cell-based; details: Middle East respiratory syndrome-related coronavirus
[4] = test system: NL4-3ΔEnvLuc/A-MLV pseudovirus; test: microbe, parasite or virus in culture; type: cell-based, amphotropic murine leukemia virus (A-MLV); details: 293T/ACE2, read-out: A-MLV IC50
SARS-CoV-1 Urbani = test: microbe, parasite or virus in culture; type: cell-based; details: Severe acute respiratory syndrome coronavirus, Calu-3, read-out: IC50, SARS-CoV-1 Urbani
MERS-CoV, EMC/2012 = test: microbe, parasite or virus in culture; type: cell-based; details: Middle East respiratory syndrome-related coronavirus, Calu-3, read-out: IC50, MERS-CoV
[5] = test system: SARS-CoV-2 spike (Wuhan-Hu-1) mediated cell-to-cell fusion, Jurkat donor / 293T/ACE2 acceptor cells; test: microbe, parasite or virus in culture; type: cell-based; details: Severe acute respiratory syndrome coronavirus 2, 4 h; read-out: IC50, cell-to-cell fusion inhibition
[6] = test system: SARS-CoV-2 strains, SARS-COV-1, and MERS-CoV pseudoviruses; test: organism not typed; type: cell-based; details: Calu-3, read-out: IC50, range over all the viral clones evaluated
[7] = pH 7.4
in vitro [8] = details: human
in vitro [9] = details: human; remark: listed apart in the source
in vitro [10] = details: human; remark: listed apart in the source
in vitro [11] = details: human; remark: listed apart in the source
in vitro [12] = details: human; remark: listed apart in the source
in vitro [13] = details: human; remark: listed apart in the source
physchem = details: pH 7.4
in vitro [14] = details: human; remark: listed apart in the source
in vitro [15] = details: human, microsomes, pH 7.4
CYP1A2 = CYP1A2 (Homo sapiens, UniProt P05177); test: biochemical
CYP2B6 = CYP2B6 (Homo sapiens, UniProt P20813); test: biochemical
CYP2C8 = CYP2C8 (Homo sapiens, UniProt P10632); test: biochemical
CYP2C9 = CYP2C9 (Homo sapiens, UniProt P11712); test: biochemical
CYP2C19 = CYP2C19 (Homo sapiens, UniProt P33261); test: biochemical
CYP2D6 = CYP2D6 (Homo sapiens, UniProt P10635); test: biochemical
Plasma protein binding = details: human, pH 7.4

Sequence of CYP1A2 (P05177 whole entry): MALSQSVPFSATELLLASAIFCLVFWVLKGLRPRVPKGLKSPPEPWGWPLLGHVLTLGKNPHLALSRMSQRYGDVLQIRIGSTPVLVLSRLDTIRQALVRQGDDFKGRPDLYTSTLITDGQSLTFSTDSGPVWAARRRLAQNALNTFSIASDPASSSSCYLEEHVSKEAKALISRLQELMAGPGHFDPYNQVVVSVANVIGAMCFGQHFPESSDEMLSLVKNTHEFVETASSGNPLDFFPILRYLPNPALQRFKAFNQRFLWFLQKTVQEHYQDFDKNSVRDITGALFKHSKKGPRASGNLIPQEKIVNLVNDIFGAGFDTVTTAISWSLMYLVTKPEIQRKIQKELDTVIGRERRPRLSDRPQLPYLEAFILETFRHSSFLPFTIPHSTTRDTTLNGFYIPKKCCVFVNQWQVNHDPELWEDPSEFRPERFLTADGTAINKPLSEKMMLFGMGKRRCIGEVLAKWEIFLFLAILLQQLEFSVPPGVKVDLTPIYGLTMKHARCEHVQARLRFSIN
Sequence of CYP2B6 (P20813 whole entry): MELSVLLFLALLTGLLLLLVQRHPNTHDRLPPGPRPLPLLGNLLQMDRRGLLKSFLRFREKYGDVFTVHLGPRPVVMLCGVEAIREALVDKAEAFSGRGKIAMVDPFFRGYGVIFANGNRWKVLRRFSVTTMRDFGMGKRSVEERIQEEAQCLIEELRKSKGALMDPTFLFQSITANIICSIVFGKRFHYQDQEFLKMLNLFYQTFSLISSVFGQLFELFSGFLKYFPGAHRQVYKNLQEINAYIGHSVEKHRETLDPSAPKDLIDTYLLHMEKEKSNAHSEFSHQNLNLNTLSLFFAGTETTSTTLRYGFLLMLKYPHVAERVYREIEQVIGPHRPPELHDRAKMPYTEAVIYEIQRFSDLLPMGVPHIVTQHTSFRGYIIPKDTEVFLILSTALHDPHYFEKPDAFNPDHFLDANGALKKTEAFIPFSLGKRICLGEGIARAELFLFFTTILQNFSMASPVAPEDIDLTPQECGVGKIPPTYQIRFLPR
Sequence of CYP2C19 (P33261 whole entry): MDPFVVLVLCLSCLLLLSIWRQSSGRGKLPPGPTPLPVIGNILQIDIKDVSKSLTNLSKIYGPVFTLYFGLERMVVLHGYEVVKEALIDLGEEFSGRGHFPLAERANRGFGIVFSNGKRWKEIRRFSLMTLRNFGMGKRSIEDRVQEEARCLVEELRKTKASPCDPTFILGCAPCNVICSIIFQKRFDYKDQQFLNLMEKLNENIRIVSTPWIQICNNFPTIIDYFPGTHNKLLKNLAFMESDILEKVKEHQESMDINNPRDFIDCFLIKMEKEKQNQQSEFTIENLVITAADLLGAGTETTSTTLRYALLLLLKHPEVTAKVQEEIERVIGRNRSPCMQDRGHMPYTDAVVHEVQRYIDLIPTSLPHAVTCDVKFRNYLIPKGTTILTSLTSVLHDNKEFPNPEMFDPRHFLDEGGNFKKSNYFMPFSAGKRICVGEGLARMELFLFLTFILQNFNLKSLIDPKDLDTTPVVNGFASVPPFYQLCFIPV
Sequence of CYP2C8 (P10632 whole entry): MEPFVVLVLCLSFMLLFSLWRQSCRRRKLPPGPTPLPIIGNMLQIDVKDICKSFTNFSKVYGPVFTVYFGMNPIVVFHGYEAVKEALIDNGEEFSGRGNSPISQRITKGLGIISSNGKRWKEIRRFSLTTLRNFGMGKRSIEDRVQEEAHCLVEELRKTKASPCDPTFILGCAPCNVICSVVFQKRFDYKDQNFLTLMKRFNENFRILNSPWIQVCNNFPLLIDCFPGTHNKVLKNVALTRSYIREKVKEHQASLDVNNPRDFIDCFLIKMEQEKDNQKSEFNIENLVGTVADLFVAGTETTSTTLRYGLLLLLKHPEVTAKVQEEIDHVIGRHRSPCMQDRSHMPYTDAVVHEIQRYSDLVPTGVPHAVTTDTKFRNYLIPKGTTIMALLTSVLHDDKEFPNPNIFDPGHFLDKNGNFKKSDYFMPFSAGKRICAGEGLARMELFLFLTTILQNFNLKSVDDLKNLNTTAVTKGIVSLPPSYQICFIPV
Sequence of CYP2C9 (P11712 whole entry): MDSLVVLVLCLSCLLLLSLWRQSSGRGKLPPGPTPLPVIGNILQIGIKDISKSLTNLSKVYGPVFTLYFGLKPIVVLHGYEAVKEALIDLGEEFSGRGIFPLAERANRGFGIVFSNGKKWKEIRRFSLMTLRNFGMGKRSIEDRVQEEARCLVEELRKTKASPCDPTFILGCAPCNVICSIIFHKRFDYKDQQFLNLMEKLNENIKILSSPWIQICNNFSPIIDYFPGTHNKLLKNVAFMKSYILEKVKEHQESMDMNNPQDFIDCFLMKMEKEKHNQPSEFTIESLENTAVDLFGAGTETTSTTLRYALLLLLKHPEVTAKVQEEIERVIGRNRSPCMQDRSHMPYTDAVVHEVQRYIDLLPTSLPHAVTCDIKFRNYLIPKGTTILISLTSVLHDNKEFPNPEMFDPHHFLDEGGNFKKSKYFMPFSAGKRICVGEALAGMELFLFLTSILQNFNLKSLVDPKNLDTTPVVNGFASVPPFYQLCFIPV
Sequence of CYP2D6 (P10635 whole entry): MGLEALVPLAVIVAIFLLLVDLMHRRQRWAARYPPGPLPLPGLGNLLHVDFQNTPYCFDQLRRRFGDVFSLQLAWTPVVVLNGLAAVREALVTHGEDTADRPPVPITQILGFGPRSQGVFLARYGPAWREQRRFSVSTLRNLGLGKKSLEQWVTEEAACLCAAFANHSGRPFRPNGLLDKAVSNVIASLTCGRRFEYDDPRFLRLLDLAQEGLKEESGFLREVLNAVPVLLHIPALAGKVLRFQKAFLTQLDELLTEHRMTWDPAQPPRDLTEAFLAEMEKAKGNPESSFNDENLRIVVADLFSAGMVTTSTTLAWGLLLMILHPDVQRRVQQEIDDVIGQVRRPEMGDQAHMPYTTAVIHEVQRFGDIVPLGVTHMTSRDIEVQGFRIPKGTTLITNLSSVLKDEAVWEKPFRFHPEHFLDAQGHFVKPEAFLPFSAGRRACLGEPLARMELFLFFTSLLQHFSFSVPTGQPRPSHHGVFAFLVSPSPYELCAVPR

In the case of `Cc1cc2nc3s/c(=C/c4ccc(-c5cccc(C(=O)O)c5)o4)c(=O)n3c2cc1C` [NBCoV63], the “antiviral activity (in words)” value [1] is reported as “Active”, the IC50 ([1]; Calu-3, read-out: SARS-CoV-2 USA-WA1/2020 IC50) is reported as 120 ± 6 nM and the IC50 ([1]; Pseudovirus, 293T/ACE2) is reported as 80 ± 7 nM. It also gave an IC50 ([1]; Pseudovirus, A549-ACE2) of 55 ± 3 nM, an IC50 ([2]; 293T/ACE2, read-out: SARS-CoV-1 IC50) of 110 ± 0.5 nM and an IC50 ([2]; A549-ACE2, read-out: SARS-CoV-1 IC50) of 59 ± 1.5 nM. For the same molecule, the IC50 ([2]; Calu-3, read-out: SARS-CoV-1 IC50) was 133 ± 28 nM, the IC50 ([3]; Caco-2, read-out: MERS-CoV IC50) was 75 ± 25 nM and the IC50 ([3]; Calu-3, read-out: MERS-CoV IC50) was 220 ± 30 nM. It also gave an IC50 ([3]; MRC5, read-out: MERS-CoV IC50) of 102 ± 1 nM, an IC50 [4] of 303 ± 29 nM and an IC50 (SARS-CoV-1 Urbani) of 3.98 µM. The IC50 (MERS-CoV, EMC/2012) was 8.01 µM, the IC50 [5] was 900 nM and the IC50 [6] was 120 to 220 nM. The solubility [7] was “low”, the CC50 (in vitro [8]) was no less than 50 µM and the CC50 (in vitro [9]) was no less than 50 µM. The CC50 (in vitro [10]) was greater than 50 µM, the CC50 (in vitro [11]) was greater than 50 µM and the CC50 (in vitro [12]) was 50 µM. For the same molecule, the CC50 (in vitro [13]) was greater than 50 µM, the solubility (physchem) was 6.25 µM (≈ 2.6 µg/mL) and the efflux ratio (in vitro [14]; Caco-2) was 42.3. For the same molecule, the Papp A→B (in vitro [14]; Caco-2, pH 7.4) was 0.00242 ×10⁻⁶ cm/s, the Papp B→A (in vitro [14]; Caco-2, pH 7.4) was 0.19 ×10⁻⁶ cm/s and the half-life (in vitro [15]) was greater than 180 min. The microsomal CLint (in vitro [15]) was 3.4 µL/min/mg, the IC50 (CYP1A2) was greater than 25 µM and the IC50 (CYP2B6) was greater than 25 µM. It also gave an IC50 (CYP2C8) greater than 25 µM, an IC50 (CYP2C9) greater than 25 µM and an IC50 (CYP2C19) greater than 25 µM. For the same molecule, the IC50 (CYP2D6) was greater than 25 µM and the fraction unbound at 4 h, 5 µM (Plasma protein binding) was less than 0.005.
